Data taken from ChEMBL document CHEMBL2163239, “Inhibitors of human immunodeficiency virus type 1 (HIV-1) attachment 6. Preclinical and human pharmacokinetic profiling of BMS-663749, a phosphonooxymethyl prodrug of the HIV-1 attachment inhibitor 2-(4-benzoyl-1-piperazinyl)-1-(4,7-dimethoxy-1H-pyrrolo[2,3-c]pyridin-3-yl)-2-oxoethanone …” (J Med Chem, 2012).

Columns and labels:
[1] = Aqueous solubility of compound at pH 8.9; type: physicochemical
[2] = Aqueous solubility of compound at pH 5.4; type: physicochemical
[3] = Aqueous solubility of compound at pH 1.4 after 18 to 24 hrs by RP-HPLC analysis; type: physicochemical
[4] = Lipophilicity, log D of compound in octanol-PBS mixture at pH 6.5 by HPLC-UV analysis; type: physicochemical
[5] = Clearance in Sprague-Dawley rat at 1.4 mg/kg, iv; type: ADME, organism-based; design: dose 1.4 mg/kg, route intravenous; conditions: in vivo
[6] = Volume of distribution at steady state in Sprague-Dawley rat at 1.4 mg/kg, iv; type: ADME, organism-based; design: dose 1.4 mg/kg, route intravenous; conditions: in vivo, read-out: Vdss
[7] = Half life in Sprague-Dawley rat at 1.4 mg/kg, iv; type: ADME, organism-based; design: dose 1.4 mg/kg, route intravenous; conditions: in vivo
[8] = Mean residence time in Sprague-Dawley rat at 1.4 mg/kg, iv; type: ADME, organism-based; design: dose 1.4 mg/kg, route intravenous; conditions: in vivo
[9] = tested on: Rattus norvegicus; test: Absolute oral bioavailability in Sprague-Dawley rat assessed as BMS-488043 level at 7.9 mg/kg; type: ADME, organism-based; conditions: in vivo
[10] = tested on: Rattus norvegicus; test: Cmax in Sprague-Dawley rat assessed as BMS-488043 level at 7.9 mg/kg, po; type: ADME, organism-based; design: dose 7.9 mg/kg, route oral; conditions: in vivo
[11] = tested on: Rattus norvegicus; test: Tmax in Sprague-Dawley rat assessed as BMS-488043 level at 7.9 mg/kg, po; type: ADME, organism-based; design: dose 7.9 mg/kg, route oral; conditions: in vivo
[12] = tested on: Rattus norvegicus; test: AUC (total) in Sprague-Dawley rat assessed as BMS-488043 level at 7.9 mg/kg, po; type: ADME, organism-based, Plasma; design: dose 7.9 mg/kg, route oral; conditions: in vivo
[13] = tested on: Rattus norvegicus; test: Half life in Sprague-Dawley rat assessed as BMS-488043 level at 7.9 mg/kg, po; type: ADME, organism-based; design: dose 7.9 mg/kg, route oral; conditions: in vivo
[14] = Clearance in beagle dog at 1.2 mg/kg, iv; type: ADME, organism-based, Canis lupus familiaris; design: dose 1.2 mg/kg, route intravenous; conditions: in vivo
[15] = Volume of distribution at steady state in beagle dog at 1.2 mg/kg, iv; type: ADME, organism-based, Canis lupus familiaris; design: dose 1.2 mg/kg, route intravenous; conditions: in vivo, read-out: Vdss
[16] = Half life in beagle dog at 1.2 mg/kg, iv; type: ADME, organism-based, Canis lupus familiaris; design: dose 1.2 mg/kg, route intravenous; conditions: in vivo
[17] = Mean residence time in beagle dog at 1.2 mg/kg, iv; type: ADME, organism-based, Canis lupus familiaris; design: dose 1.2 mg/kg, route intravenous; conditions: in vivo
[18] = tested on: Canis familiaris; test: Absolute oral bioavailability in beagle dog assessed as BMS-488043 level at 6.6 mg/kg; type: ADME, organism-based, Canis lupus familiaris; conditions: in vivo
[19] = tested on: Canis familiaris; test: Cmax in beagle dog assessed as BMS-488043 level at 6.6 mg/kg, po; type: ADME, organism-based, Canis lupus familiaris; design: dose 6.6 mg/kg, route oral; conditions: in vivo
[20] = tested on: Canis familiaris; test: Tmax in beagle dog assessed as BMS-488043 level at 6.6 mg/kg, po; type: ADME, organism-based, Canis lupus familiaris; design: dose 6.6 mg/kg, route oral; conditions: in vivo
[21] = tested on: Canis familiaris; test: AUC (total) in beagle dog assessed as BMS-488043 level at 6.6 mg/kg, po; type: ADME, organism-based, Canis lupus familiaris, Plasma; design: dose 6.6 mg/kg, route oral; conditions: in vivo
[22] = tested on: Canis familiaris; test: Half life in beagle dog assessed as BMS-488043 level at 6.6 mg/kg, po; type: ADME, organism-based, Canis lupus familiaris; design: dose 6.6 mg/kg, route oral; conditions: in vivo
[23] = Clearance in cynomolgus monkey at 1.3 mg/kg, iv; type: ADME, organism-based, Macaca fascicularis; design: dose 1.3 mg/kg, route intravenous; conditions: in vivo
[24] = Volume of distribution at steady state in cynomolgus monkey at 1.3 mg/kg, iv; type: ADME, organism-based, Macaca fascicularis; design: dose 1.3 mg/kg, route intravenous; conditions: in vivo, read-out: Vdss
[25] = Half life in cynomolgus monkey at 1.3 mg/kg, iv; type: ADME, organism-based, Macaca fascicularis; design: dose 1.3 mg/kg, route intravenous; conditions: in vivo
[26] = Mean residence time in cynomolgus monkey at 1.3 mg/kg, iv; type: ADME, organism-based, Macaca fascicularis; design: dose 1.3 mg/kg, route intravenous; conditions: in vivo
[27] = tested on: Cynomolgus monkey; test: Absolute oral bioavailability in cynomolgus monkey assessed as BMS-488043 level at 7.1 mg/kg; type: ADME, organism-based, Macaca fascicularis; conditions: in vivo
[28] = tested on: Cynomolgus monkey; test: Cmax in cynomolgus monkey assessed as BMS-488043 level at 7.1 mg/kg, po; type: ADME, organism-based, Macaca fascicularis; design: dose 7.1 mg/kg, route oral; conditions: in vivo
[29] = tested on: Cynomolgus monkey; test: Tmax in cynomolgus monkey assessed as BMS-488043 level at 7.1 mg/kg, po; type: ADME, organism-based, Macaca fascicularis; design: dose 7.1 mg/kg, route oral; conditions: in vivo
[30] = tested on: Cynomolgus monkey; test: AUC (total) in cynomolgus monkey assessed as BMS-488043 level at 7.1 mg/kg, po; type: ADME, organism-based, Macaca fascicularis, Plasma; design: dose 7.1 mg/kg, route oral; conditions: in vivo
[31] = tested on: Cynomolgus monkey; test: Half life in cynomolgus monkey assessed as BMS-488043 level at 7.1 mg/kg, po; type: ADME, organism-based, Macaca fascicularis; design: dose 7.1 mg/kg, route oral; conditions: in vivo
[32] = Cmax in healthy human at 25 mg, po administered with high fat meal; type: ADME, organism-based; design: dose 25 mg, route oral; conditions: in vivo
[33] = Cmax in healthy human at 50 mg, po administered with high fat meal; type: ADME, organism-based; design: dose 50 mg, route oral; conditions: in vivo
[34] = Cmax in healthy human at 100 mg, po administered with high fat meal; type: ADME, organism-based; design: dose 100 mg, route oral; conditions: in vivo
[35] = Cmax in healthy human at 200 mg, po administered with high fat meal; type: ADME, organism-based; design: dose 200 mg, route oral; conditions: in vivo
[36] = Cmax in healthy human at 400 mg, po administered with high fat meal; type: ADME, organism-based; design: dose 400 mg, route oral; conditions: in vivo
[37] = Cmax in healthy human at 800 mg, po administered with high fat meal; type: ADME, organism-based; design: dose 800 mg, route oral; conditions: in vivo
[38] = Tmax in healthy human at 25 mg, po administered with high fat meal; type: ADME, organism-based; conditions: in vivo
[39] = Tmax in healthy human at 50 mg, po administered with high fat meal; type: ADME, organism-based; conditions: in vivo
[40] = Tmax in healthy human at 100 mg, po administered with high fat meal; type: ADME, organism-based; conditions: in vivo
[41] = Tmax in healthy human at 200 mg, po administered with high fat meal; type: ADME, organism-based; conditions: in vivo
[42] = Tmax in healthy human at 400 mg, po administered with high fat meal; type: ADME, organism-based; conditions: in vivo
[43] = Tmax in healthy human at 800 mg, po administered with high fat meal; type: ADME, organism-based; conditions: in vivo
[44] = Half life in healthy human at 25 mg, po administered with high fat meal; type: ADME, organism-based; conditions: in vivo
[45] = Half life in healthy human at 50 mg, po administered with high fat meal; type: ADME, organism-based; conditions: in vivo
[46] = Half life in healthy human at 100 mg, po administered with high fat meal; type: ADME, organism-based; conditions: in vivo
[47] = Half life in healthy human at 200 mg, po administered with high fat meal; type: ADME, organism-based; conditions: in vivo
[48] = Half life in healthy human at 400 mg, po administered with high fat meal; type: ADME, organism-based; conditions: in vivo
[49] = Half life in healthy human at 800 mg, po administered with high fat meal; type: ADME, organism-based; conditions: in vivo
[50] = AUC (infinity) in healthy human at 25 mg, po administered with high fat meal; type: ADME, organism-based; design: dose 25 mg, time infinity, route oral; conditions: plasma
[51] = AUC (infinity) in healthy human at 50 mg, po administered with high fat meal; type: ADME, organism-based; design: dose 50 mg, time infinity, route oral; conditions: plasma
[52] = AUC (infinity) in healthy human at 100 mg, po administered with high fat meal; type: ADME, organism-based; design: dose 100 mg, route oral, time infinity; conditions: plasma
[53] = AUC (infinity) in healthy human at 200 mg, po administered with high fat meal; type: ADME, organism-based; design: dose 200 mg, route oral, time infinity; conditions: plasma
[54] = AUC (infinity) in healthy human at 400 mg, po administered with high fat meal; type: ADME, organism-based; design: dose 400 mg, time infinity, route oral; conditions: plasma
[55] = AUC (infinity) in healthy human at 800 mg, po administered with high fat meal; type: ADME, organism-based; design: dose 800 mg, time infinity, route oral; conditions: plasma
[56] = tested on: Plasma; test: Plasma concentration in healthy human at 25 mg, po administered with high fat meal measured after 12 hrs; type: ADME, organism-based; conditions: in vivo, BLD = below limit of detection
[57] = tested on: Plasma; test: Plasma concentration in healthy human at 50 mg, po administered with high fat meal measured after 12 hrs; type: ADME, organism-based; conditions: in vivo, BLD = below limit of detection
[58] = Plasma concentration in healthy human at 100 mg, po administered with high fat meal measured after 12 hrs; type: ADME, organism-based
[59] = Plasma concentration in healthy human at 200 mg, po administered with high fat meal measured after 12 hrs; type: ADME, organism-based
[60] = Plasma concentration in healthy human at 400 mg, po administered with high fat meal measured after 12 hrs; type: ADME, organism-based
[61] = Plasma concentration in healthy human at 800 mg, po administered with high fat meal measured after 12 hrs; type: ADME, organism-based
[62] = Dissociation constant, pKa of compound; type: physicochemical

For COc1cnc(OC)c2c1c(C(=O)C(=O)N1CCN(C(=O)c3ccccc3)CC1)cn2COP(=O)(O)O.NCCCC[C@H](N)C(=O)O, the solubility [1] was over 12000 µg/mL, the solubility [2] was over 12000 µg/mL and the solubility [3] was 220 µg/mL. It also gave a logD [4] of under -1, a clearance [5] of 14 mL/min/kg and a Vd [6] of 0.12 L/kg. It also gave a half-life [7] of 9.6 min, an MRT [8] of 8.4 min and an F [9] of 62%. The Cmax [10] was 3.94 µM, the Tmax [11] was 49.8 min and the AUC [12] was 13.168 µM·h. It also gave a t1/2 [13] of 90 min, a clearance [14] of 70 mL/min/kg and a Vd [15] of 0.3 L/kg. It also gave a half-life [16] of 9 min, an MRT [17] of 4.2 min and an F [18] of 93%. The Cmax [19] was 14 µM, the Tmax [20] was 15 min and the AUC [21] was 82.844 µM·h. The t1/2 [22] was 246 min, the clearance [23] was 4.4 mL/min/kg and the Vd [24] was 0.048 L/kg. For the same molecule, the half-life [25] was 60 min, the MRT [26] was 10.8 min and the F [27] was 67%. It also gave a Cmax [28] of 16.4 µM, a Tmax [29] of 49.8 min and an AUC [30] of 34.183 µM·h. It also gave a t1/2 [31] of 288 min, a Cmax [32] of 784 ng/mL and a Cmax [33] of 1370 ng/mL. It also gave a Cmax [34] of 3650 ng/mL, a Cmax [35] of 8420 ng/mL and a Cmax [36] of 12900 ng/mL. It also gave a Cmax [37] of 26800 ng/mL, a Tmax [38] of 30 min and a Tmax [39] of 30 min. For the same molecule, the Tmax [40] was 30 min, the Tmax [41] was 30 min and the Tmax [42] was 37.8 min. The Tmax [43] was 60 min, the half-life [44] was 60 min and the half-life [45] was 84 min. It also gave a half-life [46] of 114 min, a half-life [47] of 402 min and a half-life [48] of 780 min. For the same molecule, the half-life [49] was 660 min, the AUC(0-inf) [50] was 1160 ng·h/mL and the AUC(0-inf) [51] was 2150 ng·h/mL. It also gave an AUC(0-inf) [52] of 5730 ng·h/mL, an AUC(0-inf) [53] of 14200 ng·h/mL and an AUC(0-inf) [54] of 26200 ng·h/mL. The AUC(0-inf) [55] was 64100 ng·h/mL, the Cp [56] was “BLD” and the Cp [57] was “BLD”. It also gave a concentration at 12 h [58] of 12 ng/mL, a concentration at 12 h [59] of 33 ng/mL and a concentration at 12 h [60] of 59 ng/mL. The concentration at 12 h [61] was 150 ng/mL and the pKa [62] was 2.2.
